The text below walks through data of patent publication US20030204875A1, “Novel agrobacterium-mediated plant transformation method” (priority 1999, published 2003).

The subject of this assay is Agrobacterium cells. Conditions: for Results (growth of Agrobacterium cells): 15 hours; for OD A660 after 15 hours growth: starting OD 0.2. As to the method:
Agrobacterium cultures used for transformation are pre-induced (except as otherwise indicated) by acetosyringone (200 μM) and glucose (2%) in AB based induction medium. The procedure followed was as follows:
Agrobacterium cells were centrifuged at 4° C. for 10 min at 3250 g and the pellet was resuspended in the pre-induction medium to a final optical density of 0.2 at A660 and incubated at 28° C. for 12-15 h.
During pre-induction, AgNO3 was added at two different levels (20 ? M and 40 ? M final concentration) to the pre-induction medium. The final optical density prior to the induction was adjusted to A660 (OD 0.2). Agrobacterium cells were pre-induced for 15 hours. Measurement of the optical density (measure of growth) was taken at the end of pre-induction, just prior to transformation. Agrobacterium cells pre-induced in the absence of AgNO3 were used as a control.

The mark [1] stands for this setting: 20 μM AgNO3 in pre-induction medium.
Where [2] appears, read: 40 μM AgNO3 in pre-induction medium.

The structures appear in SMILES notation. Read-outs that look alike come from different tables or passages of the source.

As for `O=[N+]([O-])[O-].[Ag+]` [AgNO3, silver nitrate], the “Results (growth of Agrobacterium cells)” value is, setting by setting: under setting [1], “no growth”; under setting [2], “no growth”. Also, the “OD A660 after 15 hours growth” value under setting [1] is reported as 0.23 and the “OD A660 after 15 hours growth” value under setting [2] was 0.24. Moreover, the “Effect on Agrobacterium cells, plating on semi-solid LB plates” value (15 hour culture period in the presence of AgNO3 (20 or 40 μM)) was “lethal”.
